≈ marks a conversion by molar mass, not a printed value.

The record followed here is patent US20240188569A1, “NEW YEAST STRAIN AND ITS USES FOR THE CONTROL OF PHYTOPATHOGENS” (AGROVENTURES LLC, priority 2021, published 2024).

The subject of the assay is PT22AV. The assay is described as follows: Minimum inhibitory concentration of fungicides in NYDA agar. The note with it: for Minimum inhibitory concentration: fungicide against PT22AV, incorporated in NYDA agar; for Resistance level: resistance level of PT22AV to the fungicide; for MIC: Papiliotrema terrestris, read-out: Minimum inhibitory concentration.

As to `CO/C=C(/C(=O)OC)c1ccccc1Oc1cc(Oc2ccccc2C#N)ncn1` [Azoxystrobin], the Minimum inhibitory concentration worked out at 1000 µg/mL (≈ 2.48 mM) and the Resistance level result is recorded as “Resistant”. Take `[Cl-].[Cu+2].[Cu+2].[OH-].[OH-].[OH-]` [Copper oxychloride]: the Minimum inhibitory concentration is 500 µg/mL and the Resistance level result is “Resistant”. Take `C=CCOC(Cn1ccnc1)c1ccc(Cl)cc1Cl` (stereo not drawn) [Imazalil]: the MIC is 300 µg/mL (≈ 1.01 mM) and the Resistance level result was “Sensitive”.

With `C=CC1(C)OC(=O)N(c2cc(Cl)cc(Cl)c2)C1=O` (stereo not drawn) [Vinclozolin], the MIC stood at 1000 µg/mL (≈ 3.5 mM) and the Resistance level entry is recorded as “Resistant”. Regarding `N#Cc1c[nH]cc1-c1cccc2c1OC(F)(F)O2` [Fludioxonil], the MIC is 1000 µg/mL (≈ 4.03 mM). For the compound `CC12CC1(C)C(=O)N(c1cc(Cl)cc(Cl)c1)C2=O` (stereo not drawn) [Procymidone], the MIC stood at 1000 µg/mL (≈ 3.52 mM) and the Resistance level result is recorded as “Resistant”. Turning to `CC(C)(C)C(O)(CCc1ccc(Cl)cc1)Cn1cncn1` (stereo not drawn) [Tebuconazole], the MIC was determined as 100 µg/mL (≈ 0.325 mM) and the Resistance level result was “Sensitive”. Regarding Mancozeb, the Minimum inhibitory concentration stood at 300 µg/mL and the Resistance level entry is reported as “Sensitive”.

`S1SSSSSSS1` [Sulfur]: the MIC was found to be 2000 µg/mL (≈ 7.8 mM) and the Resistance level entry was “Resistant”.

Turning to `CON=C(C(=O)OC)c1ccccc1CON=C(C)c1cccc(C(F)(F)F)c1` [Trifloxystrobin], the MIC was 1000 µg/mL (≈ 2.45 mM) and the Resistance level result is given as “Resistant”. With `CCCCNC(=O)n1c(NC(=O)OC)nc2ccccc21` [Benomyl], the MIC came to 1000 µg/mL (≈ 3.44 mM) and the Resistance level entry is on record as “Resistant”. As to `CCCC(Cn1cncn1)c1ccc(Cl)cc1Cl` (stereo not drawn) [Penconazol], the MIC is 200 µg/mL (≈ 0.704 mM) and the Resistance level result is recorded as “Sensitive”. Turning to `COC(=O)Nc1nc2ccccc2[nH]1` [Carbendazim], the MIC came out at 1000 µg/mL (≈ 5.23 mM) and the Resistance level result is given as “Resistant”.

Consider `c1ccc2[nH]c(-c3cscn3)nc2c1` [Thiabendazole], for which the MIC came to 1000 µg/mL (≈ 4.97 mM) and the Resistance level entry is “Resistant”.
